Measured values published in patent US10131652B2, “Pyrimidinyloxy benzene derivatives as herbicides” (E. I. DU PONT DE NEMOURS AND COMPANY, priority 2014, dated 2018).
Read-outs that look alike come from different tables or passages of the source.

Tests used:
Experiment in all cases: Test D pre-/postemergence plant response
Format in all cases: in vivo
[1] = system: velvetleaf (Abutilon theophrasti); conditions: Abutilon theophrasti; for pest or weed control at 62 g/ha: 62 g ai/ha; for pest or weed control at 125 g/ha: 125 g ai/ha
Description: (§1) Seeds of plant species selected from blackgrass (Alopecurus myosuroides), Italian ryegrass (Lolium multiflorum), winter wheat (Triticum aestivum), galium (catchweed bedstraw, Galium aparine), corn (Zea mays), large (Lg) crabgrass (Digitaria sanguinalis), giant foxtail (Setaria faberii), johnsongrass (Sorghum halepense), lambsquarters (Chenopodium album), morningglory (Ipomoea coccinea), yellow nutsedge (Cyperus esculentus), pigweed (Amaranthus retroflexus), ragweed (common ragweed, Ambrosia elatior), soybean (Glycine max), bamyardgrass (Echinochloa crus-galli), oilseed rape (Brassica napus), waterhemp (common waterhemp, Amaranthus rudis), and velvetleaf (Abutilon theophrasti) were planted into a blend of loam soil and sand and treated preemergence with test chemicals formulated in a non-phytotoxic solvent mixture which included a surfactant. At the same time, plants selected from these crop and weed species and also kochia (Kochia scoparia), wild oat (Avena fatua), and chickweed (common chickweed, Stellaria media) were planted in pots containing Redi-Earth® planting medium (Scotts Company, 14111 Scottslawn Road, Marysville, Ohio 43041) comprising spaghnum peat moss, vermiculite, wetting agent and starter nutrients and treated with postemergence applications of test chemicals formulated in the same manner. Plants ranged in height from 2 to 18 cm (1- to 4-leaf stage) for postemergence treatments. Treated plants and controls were maintained in a greenhouse for 13 to 15 days, after which time all species were compared to controls and visually evaluated. Plant response ratings, summarized in Table D, are based on a scale of 0 to 100 where 0 is no effect and 100 is complete control. A dash (-) response means no test result.

[2] = system: oilseed rape (Brassica napus); conditions: Brassica napus; for plant injury at 16 g/ha: 16 g ai/ha; for plant injury at 31 g/ha: 31 g ai/ha; for plant injury at 62 g/ha: 62 g ai/ha; for plant injury at 125 g/ha: 125 g ai/ha
Description: as §1

[3] = system: waterhemp (common waterhemp, Amaranthus rudis); conditions: Amaranthus tuberculatus; for pest or weed control at 16 g/ha: 16 g ai/ha; for pest or weed control at 31 g/ha: 31 g ai/ha; for pest or weed control at 62 g/ha: 62 g ai/ha; for pest or weed control at 125 g/ha: 125 g ai/ha
Description: as §1

[4] = system: pigweed (Amaranthus retroflexus); conditions: Amaranthus retroflexus; for pest or weed control at 16 g/ha: 16 g ai/ha; for pest or weed control at 31 g/ha: 31 g ai/ha; for pest or weed control at 62 g/ha: 62 g ai/ha; for pest or weed control at 125 g/ha: 125 g ai/ha
Description: as §1

[5] = system: giant foxtail (Setaria faberii); conditions: Setaria faberi; for pest or weed control at 16 g/ha: 16 g ai/ha; for pest or weed control at 31 g/ha: 31 g ai/ha; for pest or weed control at 62 g/ha: 62 g ai/ha; for pest or weed control at 125 g/ha: 125 g ai/ha
Description: as §1

corn (Zea mays) = conditions: Zea mays; for Corn plant response rating (crop injury, 0 = no effect, 100 = complete kill) at 62 g/ha: 62 g ai/ha
Description: as §1

[6] = system: johnsongrass (Sorghum halepense); conditions: Sorghum halepense; for pest or weed control at 16 g/ha: 16 g ai/ha; for pest or weed control at 31 g/ha: 31 g ai/ha; for pest or weed control at 62 g/ha: 62 g ai/ha; for pest or weed control at 125 g/ha: 125 g ai/ha
Description: as §1

[7] = system: winter wheat (Triticum aestivum); conditions: Triticum aestivum; for plant injury at 16 g/ha: 16 g ai/ha; for plant injury at 31 g/ha: 31 g ai/ha; for plant injury at 62 g/ha: 62 g ai/ha; for plant injury at 125 g/ha: 125 g ai/ha
Description: as §1

[8] = system: morningglory (Ipomoea coccinea); conditions: Ipomoea; for pest or weed control at 16 g/ha: 16 g ai/ha; for pest or weed control at 31 g/ha: 31 g ai/ha; for pest or weed control at 62 g/ha: 62 g ai/ha; for pest or weed control at 125 g/ha: 125 g ai/ha
Description: as §1

[9] = post-emergence, Postemergence, scale 0 to 100, 0 no effect, 100 complete control, read-out: Plant response rating, Velvetleaf
[10] = post-emergence, Postemergence, scale 0 to 100 (0 no effect, 100 complete control), read-out: Oilseed Rape plant response rating
[11] = post-emergence, Postemergence, scale 0 to 100, 0 no effect, 100 complete control, read-out: Plant response rating, Oilseed Rape
[12] = pre-emergence, Preemergence, scale 0 to 100 (0 no effect, 100 complete control), read-out: Plant response rating, Oilseed Rape
[13] = post-emergence, Postemergence, scale 0 to 100 (0 no effect, 100 complete control), read-out: Waterhemp plant response rating
[14] = post-emergence, Postemergence, scale 0 to 100, 0 no effect, 100 complete control, read-out: Plant response rating, Waterhemp
[15] = pre-emergence, Preemergence, scale 0 to 100 (0 no effect, 100 complete control), read-out: Plant response rating, Waterhemp
[16] = post-emergence, Postemergence, scale 0 to 100 (0 no effect, 100 complete control), read-out: Pigweed plant response rating
[17] = post-emergence, Postemergence, scale 0 to 100, 0 no effect, 100 complete control, read-out: Plant response rating, Pigweed
[18] = pre-emergence, Preemergence, scale 0 to 100 (0 no effect, 100 complete control), read-out: Plant response rating, Pigweed
[19] = post-emergence, Postemergence, scale 0 to 100 (0 no effect, 100 complete control), read-out: Foxtail, Giant plant response rating
[20] = post-emergence, Postemergence, scale 0 to 100, 0 no effect, 100 complete control, read-out: Plant response rating, Foxtail, Giant
[21] = pre-emergence, Preemergence, scale 0 to 100 (0 no effect, 100 complete control), read-out: Plant response rating, Foxtail, Giant
[22] = post-emergence, Postemergence, scale 0 to 100 (0 no effect, 100 complete control), read-out: Johnsongrass plant response rating
[23] = post-emergence, Postemergence, scale 0 to 100, 0 no effect, 100 complete control, read-out: Plant response rating, Johnsongrass
[24] = pre-emergence, Preemergence, scale 0 to 100 (0 no effect, 100 complete control), read-out: Plant response rating, Johnsongrass
[25] = post-emergence, Postemergence, scale 0 to 100 (0 no effect, 100 complete control), read-out: Wheat plant response rating
[26] = post-emergence, Postemergence, scale 0 to 100, 0 no effect, 100 complete control, read-out: Plant response rating, Wheat
[27] = pre-emergence, Preemergence, scale 0 to 100 (0 no effect, 100 complete control), read-out: Plant response rating, Wheat
[28] = post-emergence, Postemergence, scale 0 to 100 (0 no effect, 100 complete control), read-out: Morningglory plant response rating
[29] = post-emergence, Postemergence, scale 0 to 100, 0 no effect, 100 complete control, read-out: Plant response rating, Morningglory
[30] = pre-emergence, Preemergence, scale 0 to 100 (0 no effect, 100 complete control), read-out: Plant response rating, Morningglory

## FC(F)c1cc(-c2ccccc2Oc2ncc(Cl)cn2)on1 [Compound 53, 5-chloro-2-[2-[3-(difluoromethyl)-5-isoxazolyl]phenoxy]pyrimidine]
[1]; [9]
  pest or weed control at 62 g/ha: 70%
  pest or weed control at 125 g/ha: 100%
[1]; pre-emergence, Preemergence, read-out: Plant response rating (scale 0 to 100), Velvetleaf
  pest or weed control at 125 g/ha: 100%
[1]; pre-emergence, Preemergence, 16 g ai/ha, scale 0 to 100 (0 no effect, 100 complete control), read-out: Plant response rating, Velvetleaf
  pest or weed control at 16 g/ha: 100%
[1]; pre-emergence, Preemergence, 31 g ai/ha, scale 0 to 100 (0 no effect, 100 complete control), read-out: Plant response rating, Velvetleaf
  pest or weed control at 31 g/ha: 100%
[1]; pre-emergence, Preemergence, scale 0 to 100 (0 no effect, 100 complete control), read-out: Plant response rating, Velvetleaf
  pest or weed control at 62 g/ha: 100%
[2]; [10]
  plant injury at 16 g/ha: 70%
  plant injury at 31 g/ha: 80%
[2]; [11]
  plant injury at 62 g/ha: 95%
  plant injury at 125 g/ha: 85%
[2]; pre-emergence, Preemergence, read-out: Plant response rating (scale 0 to 100), Oilseed Rape
  plant injury at 125 g/ha: 100%
[2]; [12]
  plant injury at 16 g/ha: 80%
  plant injury at 31 g/ha: 100%
  plant injury at 62 g/ha: 100%
[3]; [13]
  pest or weed control at 16 g/ha: 80%
  pest or weed control at 31 g/ha: 90%
[3]; [14]
  pest or weed control at 62 g/ha: 90%
  pest or weed control at 125 g/ha: 100%
[3]; pre-emergence, Preemergence, read-out: Plant response rating (scale 0 to 100), Waterhemp
  pest or weed control at 125 g/ha: 100%
[3]; [15]
  pest or weed control at 16 g/ha: 100%
  pest or weed control at 31 g/ha: 100%
  pest or weed control at 62 g/ha: 100%
[4]; [16]
  pest or weed control at 16 g/ha: 85%
  pest or weed control at 31 g/ha: 90%
[4]; [17]
  pest or weed control at 62 g/ha: 90%
  pest or weed control at 125 g/ha: 100%
[4]; pre-emergence, Preemergence, read-out: Plant response rating (scale 0 to 100), Pigweed
  pest or weed control at 125 g/ha: 100%
[4]; [18]
  pest or weed control at 16 g/ha: 95%
  pest or weed control at 31 g/ha: 100%
  pest or weed control at 62 g/ha: 100%
[5]; [19]
  pest or weed control at 16 g/ha: 40%
  pest or weed control at 31 g/ha: 20%
[5]; [20]
  pest or weed control at 62 g/ha: 25%
  pest or weed control at 125 g/ha: 30%
[5]; pre-emergence, Preemergence, read-out: Plant response rating (scale 0 to 100), Foxtail, Giant
  pest or weed control at 125 g/ha: 100%
[5]; [21]
  pest or weed control at 16 g/ha: 10%
  pest or weed control at 31 g/ha: 85%
  pest or weed control at 62 g/ha: 98%
Corn (Zea mays); post-emergence, Postemergence, 16 g ai/ha, scale 0 to 100 (0 no effect, 100 complete control), read-out: Corn plant response rating
  plant injury at 16 g/ha: 0%
Corn (Zea mays); post-emergence, Postemergence, 31 g ai/ha, scale 0 to 100 (0 no effect, 100 complete control), read-out: Corn plant response rating
  plant injury at 31 g/ha: 0%
Corn (Zea mays); post-emergence, Postemergence, scale 0 to 100, 0 no effect, 100 complete control
  Corn plant response rating (crop injury, 0 = no effect, 100 = complete kill) at 62 g/ha: 0%
Corn (Zea mays); post-emergence, Postemergence, 125 g ai/ha, scale 0 to 100, 0 no effect, 100 complete control
  Corn plant response rating (crop injury, 0 = no effect, 100 = complete kill) at 125 g/ha: 0%
Corn (Zea mays); pre-emergence, Preemergence, 125 g ai/ha, read-out: Plant response rating (scale 0 to 100), Corn
  plant injury at 125 g/ha: 5%
Corn (Zea mays); pre-emergence, Preemergence, 16 g ai/ha, scale 0 to 100 (0 no effect, 100 complete control)
  Corn plant response rating (crop injury, 0 = no effect, 100 = complete kill) at 16 g/ha: 5%
Corn (Zea mays); pre-emergence, Preemergence, 31 g ai/ha, scale 0 to 100 (0 no effect, 100 complete control)
  Corn plant response rating (crop injury, 0 = no effect, 100 = complete kill) at 31 g/ha: 10%
Corn (Zea mays); pre-emergence, Preemergence, scale 0 to 100 (0 no effect, 100 complete control)
  Corn plant response rating (crop injury, 0 = no effect, 100 = complete kill) at 62 g/ha: 100%
[6]; [22]
  pest or weed control at 16 g/ha: 0%
  pest or weed control at 31 g/ha: 0%
[6]; [23]
  pest or weed control at 62 g/ha: 5%
  pest or weed control at 125 g/ha: 5%
[6]; pre-emergence, Preemergence, read-out: Plant response rating (scale 0 to 100), Johnsongrass
  pest or weed control at 125 g/ha: 55%
[6]; [24]
  pest or weed control at 16 g/ha: 0%
  pest or weed control at 31 g/ha: 0%
  pest or weed control at 62 g/ha: 35%
[7]; [25]
  plant injury at 16 g/ha: 0%
  plant injury at 31 g/ha: 0%
[7]; [26]
  plant injury at 62 g/ha: 0%
  plant injury at 125 g/ha: 0%
[7]; pre-emergence, Preemergence, read-out: Plant response rating (scale 0 to 100), Wheat
  plant injury at 125 g/ha: 5%
[7]; [27]
  plant injury at 16 g/ha: 0%
  plant injury at 31 g/ha: 0%
  plant injury at 62 g/ha: 0%
[8]; [28]
  pest or weed control at 16 g/ha: 50%
  pest or weed control at 31 g/ha: 80%
[8]; [29]
  pest or weed control at 62 g/ha: 85%
  pest or weed control at 125 g/ha: 55%
[8]; pre-emergence, Preemergence, read-out: Plant response rating (scale 0 to 100), Morningglory
  pest or weed control at 125 g/ha: 40%
[8]; [30]
  pest or weed control at 16 g/ha: 0%
  pest or weed control at 31 g/ha: 0%
  pest or weed control at 62 g/ha: 45%
